What was measured:
[1] = Ferric reducing antioxidant power (FRAP) assay; type: biochemical
Procedure, shortened: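 Sample mixed with FRAP reagent (300 mM acetate buffer pH 3.6, 10 mM TPTZ in 40 mM HCl, 20 mM FeCl3; 10:1:1) and kept 15 min in the dark; absorbance at 593 nm. Values from an FeSO4 standard curve, as mM FeSO4 equivalent per mg protein.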

[2] = DPPH radical scavenging assay; type: biochemical; settings: supplement tables; for DPPH, mean±SD: n = 3
Procedure, shortened: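 Sample mixed with 0.1 mM DPPH in 70% ethanol and kept 30 min in the dark at room temperature; absorbance read at 517 nm. Scavenging % taken from absorbance relative to a reagent-only control; Trolox standard curve gives TEAC as mM TE/mg protein.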

[3] = tested on: RAW 264.7; test: Anti-inflammation assay: released NO in LPS-stimulated RAW 264.7 (Griess); type: cell-based, Murine; settings: then 1 µg/mL LPS 24 h; for Released NO: peptide 10 µg/mL 1 h; for Released NO, mean±SD: peptide 10 µg/mL pre-treatment 1 h, Griess reagent, n = 3
Procedure, shortened: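 RAW 264.7 cells pre-treated 1 h with peptide samples at 10 µg/mL, then stimulated with 1 µg/mL LPS for 24 h. NO released into conditioned medium quantified by Griess reagent against an NO calibration curve; unstimulated cells served as negative control.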

[4] = ABTS radical scavenging assay; type: biochemical; settings: for ABTS, mean±SD / ABTS: supplement tables
Procedure, shortened: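 ABTS radical, generated with 2.45 mM potassium persulfate (12-16 h, dark, room temperature) and diluted to A734 0.74 ± 0.03, was mixed with sample 10:190 μL sample:ABTS and kept 7 min in the dark. Scavenging % from absorbance drop at 734 nm versus reagent-only control; TEAC from Trolox standard curve, as mM TE/mg protein.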

[5] = tested on: RAW 264.7; test: Cytotoxicity assessment (MTT); type: cell-based, Murine; settings: peptide 10 µg/mL, 72 h; for Cell viability, mean±SD: relative to untreated cells, n = 3, SD
Procedure, shortened: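 RAW 264.7 murine macrophages seeded at 1 x 10^5 cells/well and exposed to peptides at 10 µg/mL for 72 h. MTT (0.5 mg/mL) added for 3 h, formazan dissolved in DMSO and read at 570/630 nm; viability as % of untreated after blank subtraction.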

[6] = 10 µL sample + 190 µL FRAP solution, 15 min dark, 593 nm, FeSO4 standard curve, mean ± SD, n = 3, SD

| Sequence | FRAP [1, 6] | FRAP ([1]; supplement tables, replicate 1) | FRAP ([1]; supplement tables, replicate 2) | FRAP ([1]; supplement tables, replicate 3) | DPPH, mean±SD [2] | DPPH ([2]; replicate 1) | DPPH ([2]; replicate 2) | DPPH ([2]; replicate 3) | Released NO ([3]; replicate 1) | Released NO ([3]; replicate 2) | Released NO ([3]; replicate 3) | Released NO, mean±SD [3] | ABTS, mean±SD ([4]; mean ± SD, n = 3) | ABTS ([4]; replicate 1) | ABTS ([4]; replicate 2) | ABTS ([4]; replicate 3) | Cell viability, mean±SD [5] | Cell viability ([5]; replicate 1) | Cell viability ([5]; replicate 2) | Cell viability ([5]; replicate 3) | further results |
| --- | --- | --- | --- | --- | --- | --- | --- | --- | --- | --- | --- | --- | --- | --- | --- | --- | --- | --- | --- | --- | --- |
| PMETDDQPNN [P17, synthesized peptide identified from jellyfish fraction PUR20C] | 6.50±1.59^G mM FeSO4/mg protein | 7.63 mM FeSO4/mg protein | 7.21 mM FeSO4/mg protein | 4.68 mM FeSO4/mg protein | 5.23±0.53^D TE/mg protein | 4.70 TE/mg protein | 5.23 TE/mg protein | 5.76 TE/mg protein | 34.48 µM | 34.82 µM | 34.82 µM | 34.71 µM | 4.64 TE/mg protein | 4.11 TE/mg protein | 4.11 TE/mg protein | 5.71 TE/mg protein | 83.65% | 83.47% | 83.83% | 83.65% |  |
| RARVVPMY [P6, synthesized peptide identified from jellyfish fraction PUR20C] | 10.78±0.63^D mM FeSO4/mg protein | 10.15 mM FeSO4/mg protein | 11.42 mM FeSO4/mg protein | 10.78 mM FeSO4/mg protein | 3.28 TE/mg protein | 3.11 TE/mg protein | 2.84 TE/mg protein | 3.90 TE/mg protein | 34.82 µM | 35.51 µM | 39.65 µM | 36.66 ± 2.61 µM | 139.87±0.50^A TE/mg protein | 139.34 TE/mg protein | 139.94 TE/mg protein | 140.34 TE/mg protein | 85.47% | 92.97% | 82.77% | 80.66% | ABTS radical scavenging activity (TEAC) ([4]; 10 µL sample + 190 µL ABTS solution, 7 min dark, 734 nm, Trolox standard curve, mean ± SD, n = 3): highest activity |
| RPLAKIIP [P8, synthesized peptide identified from jellyfish fraction PUR20C] | 9.31 mM FeSO4/mg protein | 9.31 mM FeSO4/mg protein | 9.52 mM FeSO4/mg protein | 9.10 mM FeSO4/mg protein | 2.22 TE/mg protein | 1.78 TE/mg protein | 1.78 TE/mg protein | 3.11 TE/mg protein | 37.58 µM | 37.93 µM | 34.82 µM | 36.78 µM | 3.11 TE/mg protein | 2.51 TE/mg protein | 3.31 TE/mg protein | 3.51 TE/mg protein | 83.71% | 84.35% | 85.23% | 81.54% |  |
| TDSPAPSETTD [P2, synthesized peptide identified from jellyfish fraction PUR20C] | 7.63 mM FeSO4/mg protein | 7.21 mM FeSO4/mg protein | 7.63 mM FeSO4/mg protein | 8.05 mM FeSO4/mg protein | 2.84 TE/mg protein | 2.31 TE/mg protein | 3.11 TE/mg protein | 3.11 TE/mg protein | 38.27 µM | 37.24 µM | 37.58 µM | 37.70 µM | 2.91 TE/mg protein | 3.11 TE/mg protein | 2.71 TE/mg protein | 2.91 TE/mg protein | 85.70% | 83.12% | 86.46% | 87.52% |  |
